{"source": "ChEMBL document CHEMBL4354803", "about": "“Synthesis and biological activity of structurally diverse phthalazine derivatives: A systematic review” (Bioorg Med Chem, 2019)", "key": {"[1]": {"target": "T1, NAD-dependent protein deacetylase sirtuin-1 (Homo sapiens) (UniProt Q96EB6)", "T1 sequence (whole entry)": "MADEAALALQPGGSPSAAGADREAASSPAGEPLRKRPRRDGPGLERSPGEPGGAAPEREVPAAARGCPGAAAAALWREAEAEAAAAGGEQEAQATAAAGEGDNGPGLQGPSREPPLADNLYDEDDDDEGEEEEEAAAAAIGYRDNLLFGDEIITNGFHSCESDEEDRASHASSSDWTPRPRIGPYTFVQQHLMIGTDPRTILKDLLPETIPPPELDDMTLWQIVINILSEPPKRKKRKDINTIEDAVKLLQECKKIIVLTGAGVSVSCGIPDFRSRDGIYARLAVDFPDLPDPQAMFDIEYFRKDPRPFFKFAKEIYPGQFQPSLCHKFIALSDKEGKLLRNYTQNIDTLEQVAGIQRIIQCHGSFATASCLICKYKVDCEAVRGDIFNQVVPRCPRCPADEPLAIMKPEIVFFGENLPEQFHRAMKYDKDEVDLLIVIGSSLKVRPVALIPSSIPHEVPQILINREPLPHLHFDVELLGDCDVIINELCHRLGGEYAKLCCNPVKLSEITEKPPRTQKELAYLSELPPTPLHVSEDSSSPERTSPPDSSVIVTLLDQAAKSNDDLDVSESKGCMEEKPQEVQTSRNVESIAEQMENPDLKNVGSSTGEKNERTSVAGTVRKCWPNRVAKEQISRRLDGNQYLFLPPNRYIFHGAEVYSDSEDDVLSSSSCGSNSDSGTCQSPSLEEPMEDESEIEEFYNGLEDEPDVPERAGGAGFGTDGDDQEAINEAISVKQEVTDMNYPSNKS", "assay": "Modulation of SIRT1 (unknown origin) expressed in Escherichia coli BL21(DE3) cells using Ac-EE-K(biotin)-GQSTSSHSK(Ac)NleSTEG-K(5TMR)-EE-NH2 as substrate after 25 mins by mass spectrometry"}, "[2]": {"assay": "Inhibition of human HeLa cell derived PARP preincubated for 10 mins followed by NAD and double stranded DNA-oligos addition and measured after 45 mins by scintillation counting", "assay_type": "cell-based"}, "Mus musculus [3]": {"test_system": "Mus musculus", "assay": "Anticonvulsant activity in ip dosed mouse assessed as protection against PTZ-induced seizure", "assay_type": "functional"}, "[4]": {"target": "T2, Aldo-keto reductase family 1 member B1 (Homo sapiens, UniProt P15121)", "assay": "Inhibition of human Aldose reductase"}, "Mus musculus [5]": {"test_system": "Mus musculus", "assay": "Antinociceptive activity in Balb/c mouse at 20 mg/kg, ip after 120 mins by tail flick test relative to control", "assay_type": "functional"}, "Mus musculus [6]": {"test_system": "Mus musculus", "assay": "Antinociceptive activity in Balb/c mouse at 20 mg/kg, ip after 180 mins by tail flick test relative to control", "assay_type": "functional"}, "Mus musculus [7]": {"organism": "Mus musculus", "assay": "animal or person", "details": "ICR, ip", "description": "Anticonvulsant activity in ip dosed ICR mouse assessed as protection against 50 mA current-induced seizure pretreated for 30 mins followed by seizure induction measured for 60 mins by maximal electroshock seizure test"}, "[8]": {"target": "T2, Aldo-keto reductase family 1 member B1", "description": "Inhibition of human placenta Aldose reductase"}, "Rattus norvegicus": {"test_system": "Rattus norvegicus", "assay": "In vivo inhibition of Aldose reductase in streptozotocin-induced po dosed rat model of diabetes assessed as reduction in sorbitol accumulation in sciatic nerve administered at 4,7,24 hrs and measured at 27 hrs", "assay_type": "functional"}, "HepG2 [9]": {"test_system": "HepG2", "assay": "Cytotoxicity against human HepG2 cells incubated for 48 hrs by sulforhodamine B staining based ELISA", "assay_type": "functional, cell-based", "details": "HepG2, 48 h"}, "MCF7 [10]": {"test_system": "MCF7", "assay": "Cytotoxicity against human MCF7 cells", "assay_type": "functional", "details": "read-out: LC50 (the source's name)"}, "HepG2 [11]": {"test_system": "HepG2", "assay": "cells", "details": "Homo sapiens, HepG2, 24 h", "description": "Cytotoxicity against human HepG2 cells after 24 hrs by MTT assay"}, "PC-3": {"test_system": "PC-3", "assay": "Cytotoxicity against human PC3 cells after 24 hrs by MTT assay", "assay_type": "functional, cell-based", "details": "PC-3, 24 h"}, "MCF7 [12]": {"test_system": "MCF7", "assay": "cells", "details": "Homo sapiens, MCF7, 24 h", "description": "Cytotoxicity against human MCF7 cells after 24 hrs by MTT assay"}, "[13]": {"target": "T3, Poly [ADP-ribose] polymerase 1 (Homo sapiens, UniProt P09874)", "T3 sequence (P09874 whole entry)": "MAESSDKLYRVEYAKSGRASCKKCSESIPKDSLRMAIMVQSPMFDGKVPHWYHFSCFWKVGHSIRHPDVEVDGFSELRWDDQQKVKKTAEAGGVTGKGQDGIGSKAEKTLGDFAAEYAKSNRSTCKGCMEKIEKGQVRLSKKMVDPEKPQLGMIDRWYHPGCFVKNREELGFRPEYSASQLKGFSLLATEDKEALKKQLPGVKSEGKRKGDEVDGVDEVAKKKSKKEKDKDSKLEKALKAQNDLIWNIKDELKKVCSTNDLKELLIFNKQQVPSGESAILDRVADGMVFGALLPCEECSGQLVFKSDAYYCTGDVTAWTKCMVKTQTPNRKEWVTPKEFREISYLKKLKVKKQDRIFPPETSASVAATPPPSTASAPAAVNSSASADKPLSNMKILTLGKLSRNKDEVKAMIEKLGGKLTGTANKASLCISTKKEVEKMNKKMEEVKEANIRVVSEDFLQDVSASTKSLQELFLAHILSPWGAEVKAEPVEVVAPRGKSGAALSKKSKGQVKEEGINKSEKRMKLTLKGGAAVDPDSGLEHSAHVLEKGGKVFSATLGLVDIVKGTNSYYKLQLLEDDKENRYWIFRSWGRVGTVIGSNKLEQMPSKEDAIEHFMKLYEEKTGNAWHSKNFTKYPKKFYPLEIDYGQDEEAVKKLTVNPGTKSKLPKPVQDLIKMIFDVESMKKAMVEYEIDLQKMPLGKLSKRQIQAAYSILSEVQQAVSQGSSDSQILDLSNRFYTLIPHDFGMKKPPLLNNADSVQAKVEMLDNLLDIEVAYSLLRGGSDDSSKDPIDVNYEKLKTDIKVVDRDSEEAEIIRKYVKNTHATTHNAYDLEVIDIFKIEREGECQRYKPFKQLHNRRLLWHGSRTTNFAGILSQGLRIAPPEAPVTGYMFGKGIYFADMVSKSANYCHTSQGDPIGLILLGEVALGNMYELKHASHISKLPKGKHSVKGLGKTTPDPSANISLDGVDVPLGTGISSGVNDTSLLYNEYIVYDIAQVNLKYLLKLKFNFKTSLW", "assay": "Inhibition of human PARP1 expressed in Escherichia coli incubated for 15 to 40 mins by ELISA"}, "[14]": {"target": "T3, Poly [ADP-ribose] polymerase 1", "assay": "Inhibition of N-terminal GST-tagged human PARP1 expressed in a Baculovirus infected Sf9 insect cells using biotinylated substrate incubated for 1 hr by colorimetric method"}, "Ehrlich": {"test_system": "Ehrlich", "assay": "Antitumor activity against mouse EAC cells implanted in Swiss albino mouse assessed as reduction in tumor growth at 5 mg/kg, ip dosed daily starting 6 days after inoculation", "assay_type": "functional, organism-based", "details": "144 h"}}, "data": [{"smiles": "O=C(Nc1cccc2cnn(-c3cccc(OC(F)(F)F)c3)c(=O)c12)c1cccc(CN2CCOCC2)n1", "values": [{"measurement": "EC1.5", "setting": "[1]", "value": "< 5", "unit": "µM"}]}, {"smiles": "O=C(c1cc(Cc2n[nH]c(=O)c3ccccc23)ccc1F)N1CCN(c2ccccn2)CC1", "values": [{"measurement": "IC50", "setting": "[2]", "value": 3, "unit": "nM"}]}, {"smiles": "CN1CC(=O)N(c2cccc(Cc3n[nH]c(=O)c4ccccc34)c2)C1=O", "values": [{"measurement": "ED50", "setting": "Mus musculus [3]", "value": 0.00166, "unit": "µmol/kg"}, {"measurement": "IC50", "setting": "[2]", "value": "< 10", "unit": "nM"}]}, {"smiles": "O=C(O)Cc1nn(Cc2nc3cc(C(F)(F)F)ccc3s2)c(=O)c2ncccc12", "values": [{"measurement": "IC50", "setting": "[4]", "value": "2.1 to 52", "unit": "nM"}]}, {"smiles": "O=C1CCC(=O)N1c1cccc(Cc2n[nH]c(=O)c3ccccc23)c1", "values": [{"measurement": "ED50", "setting": "Mus musculus [3]", "value": 0.0016, "unit": "µmol/kg"}, {"measurement": "IC50", "setting": "[2]", "value": "< 3", "unit": "nM"}]}, {"smiles": "CN(C)CCn1nc(-c2ccncc2)c2ccccc2c1=O", "values": [{"measurement": "MPE", "setting": "Mus musculus [5]", "value": 14.84, "unit": "%"}, {"measurement": "MPE", "setting": "Mus musculus [6]", "value": 18.26, "unit": "%"}]}, {"smiles": "O=C(Nc1cccc2cnn(-c3cccc(OC(F)(F)F)c3)c(=O)c12)c1cccc(OCC(O)CO)n1", "note": "(centres undefined)", "values": [{"measurement": "EC1.5", "setting": "[1]", "value": "< 5", "unit": "µM"}]}, {"smiles": "O=C(O)CSc1nnc(Cn2[nH]c(=O)c3ccccc3c2=O)o1", "values": [{"measurement": "ED50", "setting": "Mus musculus [7]", "value": 184, "unit": "µmol/kg"}]}, {"smiles": "O=C(O)Cc1nn(Cc2nc3cc(F)cc(F)c3o2)c(=O)c2ccccc12", "values": [{"measurement": "IC50", "setting": "[8]", "value": "3.2 to 52", "unit": "nM"}, {"measurement": "ED50", "setting": "Rattus norvegicus", "value": 5.6, "unit": "mg/kg"}]}, {"smiles": "O=C(Nc1cccc2cnn(-c3cccc(C(F)(F)F)c3)c(=O)c12)c1cnccn1", "values": [{"measurement": "EC1.5", "setting": "[1]", "value": "< 5", "unit": "µM"}]}, {"smiles": "CC1C(=O)N(c2cccc(Cc3n[nH]c(=O)c4ccccc34)c2)C(=O)N1CCN1CCCCC1", "note": "(centres undefined)", "values": [{"measurement": "IC50", "setting": "[2]", "value": 2.8, "unit": "nM"}]}, {"smiles": "O=C(Nc1cccc2cnn(-c3cccc(C(F)(F)F)c3)c(=O)c12)c1cscn1", "values": [{"measurement": "EC1.5", "setting": "[1]", "value": "< 5", "unit": "µM"}]}, {"smiles": "CC(=O)CNC(=O)Cn1nc(Cc2ccccc2)c2ccccc2c1=O", "values": [{"measurement": "IC50", "setting": "HepG2 [9]", "value": 10, "unit": "nM"}]}, {"smiles": "CC(S)C[C@H](NC(=O)Cn1ncc2ccccc2c1=O)C(N)=O", "note": "(some centres undefined)", "values": [{"measurement": "CC50", "setting": "MCF7 [10]", "value": 20.3, "unit": "µM"}]}, {"smiles": "O=C(Cn1nc(Cc2ccccc2)c2ccccc2c1=O)NNS(=O)(=O)c1ccccc1", "values": [{"measurement": "IC50", "setting": "HepG2 [11]", "value": 17.4, "unit": "µM"}, {"measurement": "IC50", "setting": "PC-3", "value": 19.8, "unit": "µM"}]}, {"smiles": "O=c1c2ccccc2c(Cc2ccccc2)nn1CC(=S)NNS(=O)(=O)c1ccccc1", "values": [{"measurement": "IC50", "setting": "MCF7 [12]", "value": 19.8, "unit": "µM"}, {"measurement": "IC50", "setting": "HepG2 [11]", "value": 22.2, "unit": "µM"}]}, {"smiles": "O=C(c1cc(Cc2n[nH]c(=O)c3ccccc23)ccc1F)N1CC2C(=O)N(Cc3ccccc3)C(=O)C2C1", "note": "(centres undefined)", "values": [{"measurement": "IC50", "setting": "[13]", "value": 0.5, "unit": "nM"}]}, {"smiles": "O=C(CCCn1nc(-c2ccccc2)c2ccccc2c1=O)Nc1cccc(Cl)c1", "values": [{"measurement": "IC50", "setting": "[14]", "value": 97, "unit": "nM"}]}, {"smiles": "O=C(Nc1cccc2cnn(-c3cccc(C(F)(F)F)c3)c(=O)c12)c1cccc(CN2CCOCC2)n1", "values": [{"measurement": "EC1.5", "setting": "[1]", "value": "< 5", "unit": "µM"}]}, {"smiles": "CCCC(CCC)C(=O)O", "note": "[VALPROIC ACID]", "values": [{"measurement": "ED50", "setting": "Mus musculus [7]", "value": 1710, "unit": "µmol/kg"}]}, {"smiles": "O=C(O)Cc1nn(Cc2nc3cc(C(F)(F)F)ccc3s2)c(=O)c2cc3ccccc3cc12", "values": [{"measurement": "IC50", "setting": "[4]", "value": 46, "unit": "nM"}]}, {"smiles": "O=C(Nc1cccc2cnn(-c3cccc(C(F)(F)F)c3)c(=O)c12)c1cccc(OCC(O)CO)n1", "note": "(centres undefined)", "values": [{"measurement": "EC1.5", "setting": "[1]", "value": "< 5", "unit": "µM"}]}, {"smiles": "CCOC1CCN(C(=O)c2cc(Cc3n[nH]c(=O)c4ccccc34)ccc2F)CC1", "values": [{"measurement": "IC50", "setting": "[2]", "value": 3, "unit": "nM"}]}, {"smiles": "O=C(Nc1ccc(-c2cccc(Cc3n[nH]c(=O)c4ccccc34)c2)cc1)C1CC1", "values": [{"measurement": "IC50", "setting": "[2]", "value": 57, "unit": "nM"}]}, {"smiles": "O=c1[nH]cc(F)c(=O)[nH]1", "note": "[FLUOROURACIL]", "values": [{"measurement": "IC50", "setting": "PC-3", "value": 63.8, "unit": "µM"}]}, {"smiles": "O=C(c1cc(Cc2n[nH]c(=O)c3ccccc23)ccc1F)N1CCNCC1", "values": [{"measurement": "IC50", "setting": "[2]", "value": "< 20", "unit": "nM"}]}, {"smiles": "Cc1c(CC(=O)O)nn(Cc2nc3cc(C(F)(F)F)ccc3s2)c(=O)c1C", "values": [{"measurement": "IC50", "setting": "[4]", "value": "10 to 16", "unit": "nM"}]}, {"smiles": "O=C(O)Cc1nn(Cc2nc3cc(Br)ccc3s2)c(=O)c2ccccc12", "values": [{"measurement": "ED50", "setting": "Rattus norvegicus", "value": 3.6, "unit": "mg/kg"}]}, {"smiles": "O=C(c1cc(Cc2n[nH]c(=O)c3ccccc23)ccc1F)N1CCn2cnnc2C1", "values": [{"measurement": "IC50", "setting": "[13]", "value": 5000, "unit": "nM"}]}, {"smiles": "Cc1c(CC(=O)O)nn(Cc2nc3cc(F)cc(F)c3s2)c(=O)c1C", "values": [{"measurement": "IC50", "setting": "[4]", "value": "3.2 to 5", "unit": "nM"}]}, {"smiles": "O=C(Cn1nc(Cc2ccccc2)c2ccccc2c1=O)NNC(=S)Nc1ccccc1", "values": [{"measurement": "IC50", "setting": "Ehrlich", "value": 20, "unit": "nM"}, {"measurement": "IC50", "setting": "HepG2 [9]", "value": 10, "unit": "nM"}]}, {"smiles": "CCOC(=O)CSc1nnc(Cn2[nH]c(=O)c3ccccc3c2=O)o1", "values": [{"measurement": "ED50", "setting": "Mus musculus [7]", "value": 193, "unit": "µmol/kg"}]}, {"smiles": "O=C(O)Cc1nn(Cc2cc(F)cc(Br)c2)c(=O)c2ccccc12", "values": [{"measurement": "IC50", "setting": "[4]", "value": 20, "unit": "nM"}]}, {"smiles": "COC1CCN(C(=O)c2cc(Cc3n[nH]c(=O)c4ccccc34)ccc2F)CC1", "note": "[AZD2461]", "values": [{"measurement": "IC50", "setting": "[2]", "value": 5, "unit": "nM"}]}, {"smiles": "CN(C)CCn1nc(-c2ccccc2)c2ccccc2c1=O", "values": [{"measurement": "MPE", "setting": "Mus musculus [5]", "value": 39.61, "unit": "%"}]}, {"smiles": "CC1NC(=O)N(c2cccc(Cc3n[nH]c(=O)c4ccccc34)c2)C1=O", "note": "(centres undefined)", "values": [{"measurement": "IC50", "setting": "[2]", "value": 5, "unit": "nM"}]}, {"smiles": "O=C(c1cc(Cc2n[nH]c(=O)c3ccccc23)cc2c1OCC2)N1CCn2c(nnc2C(F)(F)F)C1", "values": [{"measurement": "IC50", "setting": "[13]", "value": 1.7, "unit": "nM"}]}]}
